From ChEMBL document CHEMBL5143734, “Seco-Lupane Triterpene Derivatives Induce Ferroptosis through GPX4/ACSL4 Axis and Target Cyclin D1 to Block the Cell Cycle” (J Med Chem, 2022) come the findings set out here.

For experiment [1], the system named is HepG2. The experiment can be described thus: Antiproliferative activity against human HepG2 cells assessed as inhibition of clone formation pretreated for 48 hrs followed by replacement with drug free medium every 3 days for 10 days by crystalline violet staining based assay. The format is functional, cell-based. The following applies: dose 0.5-2 µM, DDE = dose-dependent effect.

In a further experiment the test system is PANC-1. In words: Cytotoxicity against human PANC-1 cells assessed as reduction in cell viability by CCK-8 assay. The format is functional, cell-based.
Experiment [2] deals with HepG2. In words: Antiproliferative activity against human HepG2 cells at 0.125 to 0.5 uM incubated for 48 hrs. Conditions: dose 0.125-0.5 µM. The format is functional, cell-based.
The subject of experiment [3] is HepG2. In words: Induction of ferroptosis in human HepG2 cells assessed as increase in intracellular ROS level at 2 uM incubated for 48 hrs by DCFH-DA staining based flow cytometry analysis. The format is functional. On the technique in general: Flow cytometry measures light scatter and fluorescence of single cells or particles in a stream.
For experiment [4], the system named is HepG2. In words: Induction of ferroptosis in human HepG2 cells assessed as increased in MDA level incubated for 36 hrs. The format is functional, cell-based. The following applies: dose 0.5-2 µM, DDE = dose-dependent effect.
Experiment [5] has as its system HepG2. The experiment can be described thus: Downregulation of Cyclin A2 mRNA expression in human HepG2 cells assessed as fragments per kilo base of exon per million mapped fragments by RT-qPCR analysis (reference value: 37.48 to 47.03). The format is functional. A general note: In qPCR the cycle at which signal appears reflects the starting amount.
Experiment [6] deals with HepG2. The experiment can be described thus: Downregulation of Cyclin D1 mRNA expression in human HepG2 cells at 0.5 to 2.0 uM by RT-qPCR analysis. The following applies: dose 0.5-2 µM, time 6-36 hrs, TDE = time-dependent effect. The format is functional, cell-based.
In experiment [7] the test system is HepG2. The experiment can be described thus: Downregulation of Cyclin E1 mRNA expression in human HepG2 cells at 0.5 to 2.0 uM by RT-qPCR analysis. The format is functional, cell-based. Conditions: dose 0.5-2 µM, time 6-36 hrs, TDE = time-dependent effect.
The subject of experiment [8] is HepG2. The experiment can be described thus: Inhibition of Cyclin D1 in human HepG2 cells assessed as reduction in CDK6 expression by Western blot analysis. The format is cell-based. Conditions: dose 0.5-2 µM, DDE = dose-dependent effect.
In experiment [9] the test system is HepG2. In words: Cytotoxicity against human HepG2 cells assessed as reduction in cell viability at 5 to 100 uM relative to control. Conditions: dose 5-100 µM. The format is functional.
A short description of experiment [10]: Inhibition of Cyclin D1 in human HepG2 cells assessed as reduction in CDK4 expression by Western blot analysis. Conditions: dose 0.5-2 µM, DDE = dose-dependent effect.

Each structure is given as a SMILES string. The source made the active and inactive calls. The calls are words filed in the database; no cut-off is given here.

One may read the IC50 as the concentration at which inhibition is half-maximal. For the compound `C=C(C)[C@@H]1CC[C@]2(C(=O)OCCCCCn3cc(CCN)c4ccccc43)CC[C@]3(C)[C@H](C[C@H]4OC(=O)C[C@@H](O)[C@]5(C)[C@@H]4[C@@]3(C)CC[C@H]5C(=C)C)[C@@H]12`, the Activity entry was “Dde” in the experiment with HepG2 [1]; 96.39% in the experiment on HepG2 [3]; “Dde” in the experiment on HepG2 [4]; 30.38 in the experiment on HepG2 [5]; “Tde” in the experiment with HepG2 [6]; “Tde” in the experiment with HepG2 [7]. In addition, in the experiment with HepG2 [9], the Activity is 10.55%. For the same compound, in the experiment on PANC-1, the 50% inhibitory concentration (IC50) came out at 5.5 µM. Besides, in the experiment on HepG2 [2], the outcome was Active. Further, the inhibition entry (in the experiment with HepG2 [8]; in [10]) was “Dde” each time.
